Source: ChEMBL document CHEMBL4130478, “Improved proteolytic stability and potent activity against Leishmania infantum trypanothione reductase of α/β-peptide foldamers conjugated to cell-penetrating peptides” (Eur J Med Chem, 2017)
Active and inactive are the calls of the source. No cut-off for these calls is given here. Numbered stars: 1 amine (or outer) side, 2 acyl side, 3 side chain; on linkers, the order of the positions; unused ones are H or OH. Square brackets hold non-standard residues; d marks the D form. Peptide text beside a SMILES is read from it. X1 = O=C(CC[C@@H]1CCCN1[*:1])[*:2]; β3hQ = NC(=O)CC[C@H](N)CC(=O)O; β3hK = NCCCC[C@H](N)CC(=O)O; β3hS = N[C@@H](CO)CC(=O)O; Nle = CCCC[C@H](N)C(=O)O; β3hA = C[C@H](N)CC(=O)O

Legend:
[1] = biological target: T1, Trypanothione reductase (Leishmania infantum, UniProt A4HSF7); assay: Inhibition of dimerization of HIS/FLAG tagged Leishmania infantum trypanothione reductase incubated for 16 hrs in presence of dimerization buffer by ELISA
T1 sequence (A4HSF7 whole entry): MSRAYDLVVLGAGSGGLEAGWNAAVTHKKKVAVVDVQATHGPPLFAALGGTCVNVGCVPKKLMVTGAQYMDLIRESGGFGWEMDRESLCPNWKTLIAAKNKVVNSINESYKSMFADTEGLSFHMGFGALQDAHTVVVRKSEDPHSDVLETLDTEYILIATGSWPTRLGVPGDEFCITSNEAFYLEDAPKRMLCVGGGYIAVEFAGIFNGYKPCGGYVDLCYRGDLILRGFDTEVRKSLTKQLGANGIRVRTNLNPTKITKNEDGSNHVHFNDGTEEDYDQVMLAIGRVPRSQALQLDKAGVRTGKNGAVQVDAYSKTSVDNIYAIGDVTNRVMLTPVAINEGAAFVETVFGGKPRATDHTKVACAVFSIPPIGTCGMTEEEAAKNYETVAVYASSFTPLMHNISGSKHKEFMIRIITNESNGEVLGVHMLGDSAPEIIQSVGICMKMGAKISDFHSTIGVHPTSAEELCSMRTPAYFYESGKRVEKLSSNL

[2] = biological target: Proteinase K (Engyodontium album, UniProt P06873); assay: Stability assessed as Tritirachium album proteinase K-mediated compound degradation by measuring half life at 50 uM by HPLC method; format: ADME; conditions: parengyodontium album
Sequence of Proteinase K (P06873 whole entry): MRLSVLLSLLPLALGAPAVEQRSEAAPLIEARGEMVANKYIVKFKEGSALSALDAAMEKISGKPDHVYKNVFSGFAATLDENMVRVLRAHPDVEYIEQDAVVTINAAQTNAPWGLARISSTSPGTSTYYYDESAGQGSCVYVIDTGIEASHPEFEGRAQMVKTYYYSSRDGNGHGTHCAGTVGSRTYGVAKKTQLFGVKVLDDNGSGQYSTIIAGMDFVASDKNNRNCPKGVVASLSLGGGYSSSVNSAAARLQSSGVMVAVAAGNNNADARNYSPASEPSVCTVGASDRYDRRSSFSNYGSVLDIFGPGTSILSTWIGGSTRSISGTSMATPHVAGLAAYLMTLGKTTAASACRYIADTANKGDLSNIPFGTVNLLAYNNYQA

[3] = biological target: T1, Trypanothione reductase; assay: Inhibition of oxidoreductase activity of recombinant Leishmania infantum trypanothione reductase pre-incubated for 10 mins before T[S]2 and NADPH addition
[4] = system: Leishmania infantum; assay: Leishmanicidal activity against Leishmania infantum MCAN/ES/89/IPZ229/1/89 promastigotes at 25 uM after 24 hrs by propidium iodide staining based flow cytometry; format: functional, organism-based
[5] = system: Leishmania infantum; assay: Leishmanicidal activity against Leishmania infantum amastigotes at 25 uM after 24 hrs by propidium iodide staining based flow cytometry; format: functional, organism-based

Row | SMILES | IC50 [1] [µM] | half-life at 50 µM [2] [h] | IC50 [3] [µM] | Activity [4] | Activity [5]
1 | CCCC[C@H](NC(=O)C[C@H](CCCCN)NC(=O)[C@H](CCCC)NC(=O)C[C@H](CO)NC(=O)[C@@H](NC(=O)C[C@H](C)NC(=O)[C@@H](NC(=O)C[C@H](CO)NC(=O)C[C@H](CCC(N)=O)NC(=O)[C@@H](NC(=O)[C@@H](NC(=O)[C@H](CCCCN)NC(=O)CC[C@@H]1CCCN1C(C)=O)[C@@H](C)CC)[C@@H](C)CC)C(C)C)[C@@H](C)CC)C(N)=O (Ac-[X1]KII[β3hQ][β3hS]V[β3hA]I[β3hS][Nle][β3hK][Nle]-NH2) | 12.8 | < 0.25 | 1.65 | inactive | inactive
2 | CCCC[C@@H](CC(=O)N[C@@H](CCCCN)C(=O)N[C@@H](CCCC)C(N)=O)NC(=O)[C@H](CO)NC(=O)[C@@H](NC(=O)C[C@H](C)NC(=O)[C@@H](NC(=O)[C@H](CO)NC(=O)[C@H](CCC(N)=O)NC(=O)C[C@H](NC(=O)[C@@H](NC(=O)[C@H](CCCCN)NC(=O)C[C@@H]1CCCN1C(C)=O)[C@@H](C)CC)[C@@H](C)CC)C(C)C)[C@@H](C)CC | 13.9 | 0.383 | 2.69 | – | –
3 | CCCC[C@H](NC(=O)[C@H](CCCCN)NC(=O)[C@H](CCCC)NC(=O)[C@H](CO)NC(=O)[C@@H](NC(=O)CNC(=O)C[C@H](NC(=O)[C@H](CO)NC(=O)[C@H](CCC(N)=O)NC(=O)[C@@H](NC(=O)C[C@H](NC(=O)[C@H](CCCCN)NC(=O)[C@@H]1CCCN1C(C)=O)[C@@H](C)CC)[C@@H](C)CC)C(C)C)[C@@H](C)CC)C(N)=O | 13.7 | – | 8.78 | inactive | inactive
4 | CCCC[C@@H](CC(=O)N[C@@H](CCCCN)C(=O)N[C@@H](CC(N)=O)C(N)=O)NC(=O)[C@H](CO)NC(=O)[C@@H](NC(=O)CNC(=O)C[C@@H](NC(=O)[C@H](CO)NC(=O)[C@H](CCC(N)=O)NC(=O)C(NC(=O)C[C@@H](NC(=O)[C@H](CCCCN)NC(=O)[C@@H]1CCCN1C(C)=O)[C@@H](C)CC)[C@@H](C)CC)C(C)C)[C@@H](C)CC (single isomer, unassigned) | 9.72 | < 0.25 | 18.2 | inactive | inactive
5 | CCCC[C@@H](CC(=O)N[C@@H](CCCCN)C(=O)N[C@@H](CCCC)C(N)=O)NC(=O)[C@@H](CO)NC(=O)[C@@H](NC(=O)CNC(=O)C[C@H](NC(=O)[C@H](CO)NC(=O)[C@H](CCC(N)=O)NC(=O)C[C@H](NC(=O)[C@@H](NC(=O)[C@H](CCCCN)NC(=O)[C@@H]1CCCN1C(C)=O)[C@@H](C)CC)[C@@H](C)CC)C(C)C)[C@@H](C)CC | – | – | – | inactive | inactive
6 | CCCC[C@H](NC(=O)[C@H](CO)NC(=O)[C@@H](NC(=O)CNC(=O)[C@@H](NC(=O)[C@H](CO)NC(=O)[C@H](CCC(N)=O)NC(=O)[C@@H](NC(=O)[C@@H](NC(=O)[C@H](CCCCN)NC(=O)[C@@H]1CCCN1C(C)=O)[C@@H](C)CC)[C@@H](C)CC)C(C)C)[C@@H](C)CC)C(N)=O | 4.21 | – | 0.82 | – | –
7 | CC[C@H](C)[C@H](CC(=O)N[C@H](C(=O)N[C@@H](CCC(N)=O)C(=O)N[C@@H](CO)C(=O)N[C@@H](CC(=O)NCC(=O)N[C@H](C(N)=O)[C@@H](C)CC)C(C)C)[C@@H](C)CC)NC(=O)[C@H](CCCCN)NC(=O)[C@@H]1CCCN1C(C)=O | 53 | – | > 75 | inactive | inactive
8 | CC[C@H](C)[C@H](NC(=O)CNC(=O)[C@@H](NC(=O)[C@@H](CO)NC(=O)[C@H](CCC(N)=O)NC(=O)[C@@H](NC(=O)[C@@H](NC(=O)[C@H](CCCCN)NC(=O)[C@@H]1CCCN1C(C)=O)[C@@H](C)CC)[C@@H](C)CC)C(C)C)C(N)=O | – | – | – | inactive | inactive
9 | CCCC[C@@H](CC(N)=O)NC(=O)[C@H](CCCCN)NC(=O)[C@H](CCCC)NC(=O)C[C@H](CO)NC(=O)C[C@H](NC(=O)CNC(=O)[C@@H](NC(=O)C[C@H](CO)NC(=O)[C@H](CCC(N)=O)NC(=O)[C@@H](NC(=O)[C@@H](NC(=O)C[C@H](CCCCN)NC(=O)C[C@@H]1CCCN1C(C)=O)[C@@H](C)CC)[C@@H](C)CC)C(C)C)[C@@H](C)CC | 18 | 2.18 | 2.08 | inactive | inactive
10 | CCCC[C@H](NC(=O)C[C@H](CCCCN)NC(=O)[C@H](CCCC)NC(=O)[C@H](CO)NC(=O)[C@@H](NC(=O)C[C@H](C)NC(=O)[C@@H](NC(=O)[C@H](CO)NC(=O)[C@H](CCC(N)=O)NC(=O)C[C@@H](NC(=O)[C@@H](NC(=O)[C@H](CCCCN)NC(=O)[C@@H]1CCCN1C(C)=O)[C@@H](C)CC)[C@@H](C)CC)C(C)C)[C@@H](C)CC)C(N)=O | 13.8 | – | 5.38 | inactive | inactive
11 | CC[C@H](C)[C@H](NC(=O)CNC(=O)[C@@H](NC(=O)C[C@H](CO)NC(=O)[C@H](CCC(N)=O)NC(=O)[C@@H](NC(=O)C[C@@H](NC(=O)[C@H](CCCCN)NC(=O)[C@@H]1CCCN1C(C)=O)[C@@H](C)CC)[C@@H](C)CC)C(C)C)C(N)=O | 22.3 | 3.97 | > 75 | inactive | inactive
12 | CCCC[C@H](NC(=O)C[C@H](CCCCN)NC(=O)[C@H](CCCC)NC(=O)C[C@H](CO)NC(=O)C[C@@H](NC(=O)CNC(=O)[C@@H](NC(=O)C[C@H](CO)NC(=O)C[C@H](CCC(N)=O)NC(=O)[C@@H](NC(=O)[C@@H](NC(=O)C[C@H](CCCCN)NC(=O)C[C@@H]1CCCN1C(C)=O)[C@@H](C)CC)[C@@H](C)CC)C(C)C)[C@@H](C)CC)C(N)=O | 15.5 | 5.28 | 9.28 | inactive | inactive
13 | CCCC[C@H](NC(=O)[C@@H](CO)NC(=O)[C@@H](NC(=O)CNC(=O)[C@@H](NC(=O)[C@@H](CO)NC(=O)[C@H](CCC(N)=O)NC(=O)[C@@H](NC(=O)[C@@H](NC(=O)[C@H](CCCCN)NC(=O)[C@@H]1CCCN1C(C)=O)[C@@H](C)CC)[C@@H](C)CC)C(C)C)[C@@H](C)CC)C(N)=O | – | – | – | inactive | inactive
14 | CC[C@H](C)[C@H](NC(=O)CNC(=O)[C@@H](NC(=O)[C@H](CO)NC(=O)[C@H](CCC(N)=O)NC(=O)[C@@H](NC(=O)[C@@H](NC(=O)[C@H](CCCCN)NC(=O)[C@@H]1CCCN1C(C)=O)[C@@H](C)CC)[C@@H](C)CC)C(C)C)C(N)=O | 15.7 | – | 3.59 | – | –
15 | CCCC[C@@H](CC(=O)N[C@@H](CCCCN)C(=O)N[C@@H](CCCC)C(N)=O)NC(=O)[C@H](CO)NC(=O)[C@@H](NC(=O)CNC(=O)C[C@H](NC(=O)[C@H](CO)NC(=O)[C@H](CCC(N)=O)NC(=O)C[C@H](NC(=O)[C@@H](NC(=O)[C@H](CCCCN)NC(=O)[C@@H]1CCCN1C(C)=O)[C@@H](C)CC)[C@@H](C)CC)C(C)C)[C@@H](C)CC | 10.3 | 3.58 | 3.11 | – | –
16 | CC[C@H](C)[C@H](NC(=O)C[C@H](C)NC(=O)[C@@H](NC(=O)[C@H](CO)NC(=O)[C@H](CCC(N)=O)NC(=O)C[C@@H](NC(=O)[C@@H](NC(=O)[C@H](CCCCN)NC(=O)C[C@@H]1CCCN1C(C)=O)[C@@H](C)CC)[C@@H](C)CC)C(C)C)C(=O)O | 50.4 | – | 39.8 | inactive | inactive
17 | CCCC[C@H](NC(=O)[C@H](CO)NC(=O)[C@@H](NC(=O)C[C@H](C)NC(=O)[C@@H](NC(=O)[C@H](CO)NC(=O)[C@H](CCC(N)=O)NC(=O)C[C@@H](NC(=O)[C@@H](NC(=O)[C@H](CCCCN)NC(=O)[C@@H]1CCCN1C(C)=O)[C@@H](C)CC)[C@@H](C)CC)C(C)C)[C@@H](C)CC)C(N)=O | 47.3 | – | 28.5 | inactive | inactive
18 | CC[C@H](C)[C@H](CC(=O)N[C@@H](CCC(N)=O)C(=O)N[C@@H](CO)C(=O)N[C@@H](CC(=O)NCC(=O)N[C@H](C(N)=O)[C@@H](C)CC)C(C)C)NC(=O)[C@@H](NC(=O)[C@H](CCCCN)NC(=O)[C@@H]1CCCN1C(C)=O)[C@@H](C)CC | 41.8 | – | > 75 | inactive | inactive
19 | CCCC[C@H](NC(=O)[C@H](CCCCN)NC(=O)[C@H](CCCC)NC(=O)[C@H](CO)NC(=O)[C@@H](NC(=O)CNC(=O)[C@@H](NC(=O)[C@H](CO)NC(=O)[C@H](CCC(N)=O)NC(=O)[C@@H](NC(=O)[C@@H](NC(=O)[C@H](CCCCN)NC(=O)[C@@H]1CCCN1C(C)=O)[C@@H](C)CC)[C@@H](C)CC)C(C)C)[C@@H](C)CC)C(N)=O | 10.3 | 0.383 | 1.2 | – | –
20 | CCCC[C@H](NC(=O)[C@H](CCCCN)NC(=O)[C@H](CCCC)NC(=O)[C@@H](CO)NC(=O)[C@@H](NC(=O)CNC(=O)[C@@H](NC(=O)[C@@H](CO)NC(=O)[C@H](CCC(N)=O)NC(=O)[C@@H](NC(=O)[C@@H](NC(=O)[C@H](CCCCN)NC(=O)[C@@H]1CCCN1C(C)=O)[C@@H](C)CC)[C@@H](C)CC)C(C)C)[C@@H](C)CC)C(N)=O | – | – | – | inactive | inactive
21 | CCCC[C@@H](CC(=O)N[C@@H](CCCCN)C(=O)N[C@@H](CCCC)C(N)=O)NC(=O)[C@@H](CO)NC(=O)[C@@H](NC(=O)C[C@H](C)NC(=O)[C@@H](NC(=O)[C@@H](CO)NC(=O)[C@H](CCC(N)=O)NC(=O)C[C@H](NC(=O)[C@@H](NC(=O)[C@H](CCCCN)NC(=O)C[C@@H]1CCCN1C(C)=O)[C@@H](C)CC)[C@@H](C)CC)C(C)C)[C@@H](C)CC | – | – | – | inactive | inactive
